Like-named read-outs stand apart in the source and are kept apart here.
Test system: NICD (Notch intracellular domain) CSL-bla reporter in HeLa cells
Test: Notch assay (CellSensor T-REx NICD CSL-bla HeLa beta-lactamase reporter; Method 1 / Method 2)
Type: cell-based
Settings: Homo sapiens, 10 μM compound, read-out: inhibiton (%) at 10 μM
Summary of the method: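 HeLa cells carrying doxycycline-inducible NICD and a CSL-driven beta-lactamase reporter, 10^3 cells/well, were treated with compound plus doxycycline for 16-20 h at 37 °C. CCF4-AM substrate was loaded for 4 h at room temperature; background-subtracted blue (460 nm)/green (530 nm) emission ratio taken per well.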

[1] = Method 1 (10× compound prepared in assay medium, added to plated cells)
[2] = Method 2 (40 nL of 1000× compound added to plate with Echo)

SMILES	inhibition at 10 µM [1] [%]	inhibition at 10 µM [2] [%]
CC(C)C[C@H]1ON(C(=O)OCc2cccc3ccccc23)C2CN(C(C)C)C(=O)[C@H](Cc3ccc(O)cc3)N2C1=O (stereo partly drawn) [Compound I-14, (3R,6S)-naphthalen-1-ylmethyl 6-(4-hydroxybenzyl)-3-isobutyl-8-isopropyl-4,7-dioxohexahydropyrazino[2,1-c][1,2,4]oxadiazine-1(6H)-carboxylate]	64.8	
CC(C)CCNC(=O)[C@H](Cc1ccccc1)N1CC2N(C(=O)OCCc3ccccc3)O[C@H](CCC(N)=O)C(=O)N2[C@@H](Cc2ccccc2)C1=O (stereo partly drawn) [Compound I-90, phenethyl (3R,6S)-3-(3-amino-3-oxopropyl)-6-benzyl-8-((S)-1-(isopentylamino)-1-oxo-3-phenylpropan-2-yl)-4,7-dioxohexahydropyrazino[2,1-c][1,2,4]oxadiazine-1(6H)-carboxylate]		62.4
O=C(NCCc1ccccc1)[C@H](Cc1ccccc1)N1CC2N(C(=O)OCCc3ccc(O)cc3)O[C@H](Cc3ccc(O)cc3)C(=O)N2[C@@H](Cc2ccccc2)C1=O (stereo partly drawn) [Compound I-83, 4-hydroxyphenethyl (3R,6S)-6-benzyl-3-(4-hydroxybenzyl)-4,7-dioxo-8-((S)-1-oxo-1-(phenethylamino)-3-phenylpropan-2-yl)hexahydropyrazino [2,1-c][1,2,4]oxadiazine-1(6H)-carboxylate]		76.2
CC(C)C[C@H]1ON(CCCC2CCN(S(C)(=O)=O)CC2)C2CN(C3CCN(C)CC3)C(=O)[C@H](CC(C)C)N2C1=O (stereo partly drawn) [Compound I-151, (3R,6S)-3,6-diisobutyl-8-(1-methylpiperidin-4-yl)-1-(3-(1-(methylsulfonyl)piperidin-4-yl)propyl) tetrahydropyrazino [2,1-c][1,2,4]oxadiazine-4,7(3H,6H)-dione]		88
C[C@H]1C(=O)N(CCC(c2ccccc2)c2ccccc2)CC2N(C(=O)OCC3CCCCC3)O[C@H](CCCNC(=N)N)C(=O)N21 (stereo partly drawn) [Compound I-53, (3R,6S)-cyclohexylmethyl 8-(3,3-diphenylpropyl)-3-(3-guanidinopropyl)-6-methyl-4,7-dioxohexahydropyrazino[2,1-c][1,2,4]oxadiazine-1(6H)-carboxylate]		53.6
CC(C)C[C@H]1C(=O)N(C2CCN(C)CC2)CC2N(CCCc3ccccc3)O[C@H](CC3CCCCC3)C(=O)N21 (stereo partly drawn) [Compound I-141, (3R,6S)-3-(cyclohexylmethyl)-6-isobutyl-8-(1-methylpiperidin-4-yl)-1-(3-phenylpropyl) tetrahydropyrazino [2,1-c][1,2,4]oxadiazine-4,7(3H,6H)-dione]		83.1
O=C(NCCO)[C@H](Cc1ccccc1)N1CC2N(C(=O)OCCc3ccc(O)cc3)O[C@H](Cc3ccccc3)C(=O)N2[C@@H](Cc2ccccc2)C1=O (stereo partly drawn) [Compound I-80, 4-hydroxyphenethyl (3R,6S)-3,6-dibenzyl-8-(S)-1-(2-hydroxyethyl)amino)-1-oxo-3-phenylpropan-2-yl)-4,7-dioxohexahydropyrazino[2,1-c][1,2,4]oxadiazine-1(6H)-carboxylate]		63
CCCC[C@@H](C(=O)NCCC(C)C)N1CC2N(C(=O)OCCc3ccc(O)cc3)O[C@H](CC(C)C)C(=O)N2[C@@H](Cc2ccc(O)cc2)C1=O (stereo partly drawn) [Compound I-97, 4-hydroxyphenethyl (3R,6S)-6-(4-hydroxybenzyl)-3-isobutyl-8-((S)-1-(isopentylamino)-1-oxohexan-2-yl)-4,7-dioxohexahydropyrazino[2,1-c][1,2,4]oxadiazine-1(6H)-carboxylate]		57.3
CC(C)CCOC(=O)N1O[C@H](Cc2ccc(O)cc2)C(=O)N2C1CN([C@@H](Cc1ccc(O)cc1)C(=O)NCCc1ccccc1)C(=O)[C@@H]2Cc1ccc(O)cc1 (stereo partly drawn) [Compound I-117, isopentyl (3R,6S)-3,6-bis(4-hydroxybenzyl)-8-((S)-3-(4-hydroxyphenyl)-1-oxo-1-(phenethylamino)propan-2-yl)-4,7-dioxohexahydropyrazino[2,1-c][1,2,4]oxadiazine-1(6H)-carboxylate]		59.7
C[C@H]1C(=O)N(Cc2cccc3ccccc23)CC2N(C(=O)OCC3CCCCC3)O[C@H](CCCNC(=N)N)C(=O)N21 (stereo partly drawn) [Compound I-52, (3R,6S)-cyclohexylmethyl 3-(3-guanidinopropyl)-6-methyl-8-(naphthalen-1-ylmethyl)-4,7-dioxohexahydropyrazino[2,1-c][1,2,4]oxadiazine-1(6H)-carboxylate]		51.4
CC(C)CCN1CC2N(C(=O)OCc3cccc4ccccc34)O[C@H](C(C)C)C(=O)N2[C@@H](Cc2ccc(O)cc2)C1=O (stereo partly drawn) [Compound I-9, (3R,6S)-naphthalen-1-ylmethyl 6-(4-hydroxybenzyl)-8-isopentyl-3-isopropyl-4,7-dioxohexahydropyrazino[2,1-c][1,2,4]oxadiazine-1(6H)-carboxylate]	70	
CCCC[C@@H](C(=O)NCCCc1ccccc1)N1CC2N(C(=O)OCCc3ccccc3)O[C@H](CC(C)C)C(=O)N2[C@@H](CCC(N)=O)C1=O (stereo partly drawn) [Compound I-124, phenethyl (3R,6S)-6-(3-amino-3-oxopropyl)-3-isobutyl-4,7-dioxo-8-((S)-1-oxo-1-((3-phenylpropyl)amino)hexan-2-yl)hexahydropyrazino[2,1-c][1,2,4]oxadiazine-1(6H)-carboxylate]		57.1
CC(C)CCCNC(=O)[C@H](Cc1ccc(O)cc1)N1CC2N(C(=O)OCCC(C)C)O[C@H](CC(C)C)C(=O)N2[C@@H](Cc2ccc(O)cc2)C1=O (stereo partly drawn) [Compound I-98, isopentyl (3R,6S)-6-(4-hydroxybenzyl)-8-((S)-3-(4-hydroxyphenyl)-1-((4-methylpentyl)amino)-1-oxopropan-2-yl)-3-isobutyl-4,7-dioxohexahydropyrazino [2,1-c][1,2,4]oxadiazine-1(6H)-carboxylate]		60.4
CC(C)C[C@H]1ON(C(=O)NCCC(c2ccccc2)c2ccccc2)C2CN(Cc3ccc4ccccc4c3)C(=O)[C@H](CCC(N)=O)N2C1=O (stereo partly drawn) [Compound I-55, (3R,6S)-6-(3-amino-3-oxopropyl)-N-(3,3-diphenylpropyl)-3-isobutyl-8-(naphthalen-2-ylmethyl)-4,7-dioxohexahydropyrazino[2,1-c][1,2,4]oxadiazine-1(6H)-carboxamide]		58.7
CCCCCOC(=O)N1O[C@H](Cc2ccccc2)C(=O)N2C1CN([C@@H](Cc1ccc(O)cc1)C(=O)NCCCC(C)C)C(=O)[C@@H]2Cc1ccc(O)cc1 (stereo partly drawn) [Compound I-111, pentyl (3R,6S)-3-benzyl-6-(4-hydroxybenzyl)-8-((S)-3-(4-hydroxyphenyl)-1-((4-methylpentyl)amino)-1-oxopropan-2-yl)-4,7-dioxohexahydropyrazino[2,1-c][1,2,4]oxadiazine-1(6H)-carboxylate]		53.9
CCCC[C@H]1ON(C(=O)OCc2cccc3ccccc23)C2CN(CC3CCCCC3)C(=O)[C@H](Cc3ccc(O)cc3)N2C1=O (stereo partly drawn) [Compound I-10, (3R,6S)-naphthalen-1-ylmethyl 3-butyl-8-(cyclohexylmethyl)-6-(4-hydroxybenzyl)-4,7-dioxohexahydropyrazino[2,1-c][1,2,4]oxadiazine-1(6H)-carboxylate]	57.2	
CCCCCCOC(=O)N1O[C@@H](CCCC)C(=O)N2C1CN(Cc1ccccc1)C(=O)[C@@H]2Cc1ccc(O)cc1 (stereo partly drawn) [Compound I-4, (3S,6S)-hexyl 8-benzyl-3-butyl-6-(4-hydroxybenzyl)-4,7-dioxohexahydropyrazino[2,1-c][1,2,4]oxadiazine-1(6H)-carboxylate]	57.1	

From patent publication US20230374034A1, “NOVEL BICYCLIC COMPOUNDS” (PRISM BIOLAB CO., LTD., priority 2020, published 2023)
